What all share (format): in vivo
One assay deals with Triticum aestivum. The experiment in a line: Greenhouse post-emergence herbicidal effect against Triticum aestivum. The conditions noted are these: 216 h, 9 DAA, read-out: % Efficacy; for Emax at 5 g/ha: individual application 5 g of AS/ha; for Emax at 10 g/ha: individual application 10 g of AS/ha; for Emax at 20 g/ha: individual application 20 g of AS/ha. The procedure: (§1) Post-emergence action against weeds
(§2) Seeds or rhizome pieces of mono- and dicotyledonous harmful plants and of crop plants were placed in sandy loam in plastic pots having a diameter of 4 cm, covered with soil and cultivated in a greenhouse under good growth conditions.
(§3) Ten to twenty days after sowing, the test plants were treated at the one- to three-leaf stage. The herbicide/active compound combinations according to the invention (mixture applications) formulated as suspensions and, in parallel tests, the correspondingly formulated individual active compounds (individual applications) were then sprayed onto the green parts of the plants in various dosages at a water application rate of 300 I/ha (converted).
(§4) After the test plants had been kept in the greenhouse under optimum growth conditions for a certain period of time (DAA, days after application), the herbicidal activity was assessed visually by comparison of treated and untreated plants. The percentages mean: 0%=no herbicidal activity, 100%=the plants die off completely.
(§5) The percentages from the treatments with the herbicides alone (individual applications) and with the combinations according to the invention (mixture applications) were employed to calculate interactions using the method of Colby. When the observed efficacies of the mixture applications exceed the formal sum of the values of the tests with individual applications, they also exceed the expected value according to Colby, which is calculated using the formula below (cf. S. R. Colby; in Weeds 15 (1967) pp. 20 to 22):
(§6) Here: • A, B=activity of component A (triafamone) or B (indaziflam) in percent at a dosage of a and b, respectively, in g of AS/ha (gram of active substance per hectare). • exp. expected value in % at a dosage of a+b g of ai/ha. • b) Results
(§7) The abbreviations in the tables below have the following meanings: • DAA=days after application • g of AS/ha=grams of active substance per hectare • % efficacy=herbicidal effect in percent • meas.=measured values • exp.=expected values according to Colby (calculation: see above) • syn.%=difference (%) of measured value from expected value (%) (measured value minus expected value)/

Another assay deals with Lolium rigidum. Briefly: Greenhouse post-emergence herbicidal effect against Lolium rigidum. The conditions noted are these: 216 h, 9 DAA, read-out: % Efficacy; for Emax at 10 g/ha: individual application 10 g of AS/ha; for Emax at 20 g/ha: individual application 20 g of AS/ha. The procedure: as §1, §2, §3, §4, §5, §6, §7
For the next assay, the system named is Alopecurus myosuroides. The experiment in a line: Greenhouse post-emergence herbicidal effect against Alopecurus myosuroides. The conditions noted are these: 408 h, 17 DAA, read-out: % Efficacy; for Emax at 5 g/ha: individual application 5 g of AS/ha. How it is done: as §1, §2, §3, §4, §5, §6, §7
The subject of the next assay is Viola tricolor. Briefly: Greenhouse post-emergence herbicidal effect against Viola tricolor. The conditions noted are these: 408 h, 17 DAA, read-out: % Efficacy; for Emax at 5 g/ha: individual application 5 g of AS/ha. How it is done:
as §1, §2, §3, §4, §5, §6, §7

Another assay deals with Zea mays. The experiment in a line: Greenhouse post-emergence herbicidal effect against Zea mays. The conditions noted are these: 408 h, 17 DAA, read-out: % Efficacy; for Emax at 10 g/ha: individual application 10 g of AS/ha. How it is done: as §1, §2, §3, §4, §5, §6, §7
In a further assay the test system is Avena fatua. Briefly: Greenhouse post-emergence herbicidal effect against Avena fatua. The conditions noted are these: 408 h, 17 DAA, read-out: % Efficacy. How it is done: as §1, §2
(§8) Ten to twenty days after sowing, the test plants were treated at the one- to three-leaf stage. […]
(§9) After the test plants had been kept in the greenhouse under optimum growth conditions for a certain period of time (DAA, days after application), the herbicidal activity was assessed visually by comparison of treated and untreated plants. […]
(§10) The percentages from the treatments with the herbicides alone (individual applications) and with the combinations according to the invention (mixture applications) were employed to calculate interactions using the method of Colby. When the observed efficacies of the mixture applications exceed the formal sum of the values of the tests with individual applications, they also exceed the expected value according to Colby, which is calculated using the formula below (cf. S. R. Colby; in Weeds 15 (1967) pp. 20 to 22): […]

The next assay has as its system Hordeum murinum. The experiment in a line: Greenhouse post-emergence herbicidal effect against Hordeum murinum. The conditions noted are these: 408 h, 17 DAA, read-out: % Efficacy; for Emax at 20 g/ha: individual application 20 g of AS/ha. How it is done: as §1, §2, §3, §4, §5, §6, §7
The test system of a further assay is Glycine max. The experiment in a line: Greenhouse post-emergence herbicidal effect against Glycine max. The conditions noted are these: 408 h, 17 DAA, read-out: % Efficacy; for Emax at 10 g/ha: individual application 10 g of AS/ha. The procedure:
as §1, §2, §3, §4, §5, §6, §7

Assay [1] deals with mono- and dicotyledonous harmful plants and crop plants. The experiment in a line: Greenhouse trials, discussion of the results over all test plants. The conditions noted are these: at the dosages tested, post-emergence. How it is done: as §1, §2, §8, §9, §10
Setting [2] is: individual application 10 g of AS/ha.
Where [3] appears, read: individual application 20 g of AS/ha.
Setting [4] is: individual application 5 g of AS/ha.
Setting [5] is: individual application 2.5 g of AS/ha.

`Cc1ccc2c(c1)[C@H](Nc1nc(N)nc(C(C)F)n1)[C@@H](C)C2` (stereo partly drawn) [indaziflam]: the Emax at 5 g/ha was found to be 23% with Triticum aestivum; 15% in the assay with Alopecurus myosuroides; 80% in the assay on Viola tricolor; 10% in the assay on Avena fatua (setting [4]); 50% in the assay on Glycine max (setting [4]). Also, the Emax at 10 g/ha is 23% in the assay with Triticum aestivum; 63% in the assay with Lolium rigidum; 60% in the assay on Alopecurus myosuroides (setting [2]); 0% with Zea mays; 73% in the assay on Glycine max. Moreover, the Emax at 20 g/ha in the assay with Triticum aestivum came to 48%; in the assay on Lolium rigidum, 70%; in the assay on Alopecurus myosuroides (setting [3]), 75%; in the assay with Zea mays (setting [3]), 25%; in the assay with Hordeum murinum it was 40%. Further, the Emax at 40 g/ha with Triticum aestivum (individual application 40 g of AS/ha) turned out to be 63%.

Take `COc1nc(OC)nc(C(=O)c2cccc(F)c2N(C)S(=O)(=O)C(F)F)n1` [triafamone]: the Emax at 2.5 g/ha turned out to be 0% in the assay on Triticum aestivum (setting [5]); 0% in the assay on Lolium rigidum (setting [5]); 25% in the assay with Alopecurus myosuroides (setting [5]); 0% in the assay on Viola tricolor (setting [5]); 0% with Zea mays (setting [5]); 0% in the assay on Hordeum murinum (setting [5]). The Emax at 2.5 g/ha in the assay on Glycine max (setting [5]) came to 0%. Further, the Emax at 5 g/ha in the assay on Triticum aestivum amounted to 0%; with Lolium rigidum (setting [4]), 0%; in the assay on Alopecurus myosuroides it was 50%; in the assay on Viola tricolor, 0%; in the assay with Zea mays (setting [4]), 0%; with Hordeum murinum (setting [4]) it was 0%. Further, the Emax at 10 g/ha in the assay on Triticum aestivum, with Lolium rigidum, with Viola tricolor (setting [2]), in the assay with Zea mays, in the assay on Avena fatua (setting [2]) and in the assay with Glycine max was 0% each time. For the same compound, the Emax at 20 g/ha worked out at 13% in the assay with Triticum aestivum, 18% in the assay with Lolium rigidum and 0% in the assay with Hordeum murinum. Also, the “herbicidal efficacy as individual herbicide” value in [1] is listed as “frequently ineffective”.
